Measured values from the NIST ThermoML archive (doi:10.1016/j.jct.2007.04.005).

Test: xn = mol fraction of the nth substance listed
Settings: 318.15 K, Liquid

CCCCCCCCC [nonane] + C1CCCCC1
Settings	mass density [kg/m3]
100 kPa, x2 = 0	698.2
100 kPa, x2 = 0.09303	701
100 kPa, x2 = 0.2009	704.8
100 kPa, x2 = 0.3051	708.8
100 kPa, x2 = 0.417	713.5
100 kPa, x2 = 0.512	718
100 kPa, x2 = 0.5996	722.8
100 kPa, x2 = 0.7052	729.3
100 kPa, x2 = 0.7993	736.2
100 kPa, x2 = 0.9039	744.9
101 kPa, x2 = 0	698.48
101 kPa, x2 = 0.1022	701.67
101 kPa, x2 = 0.1548	703.43
101 kPa, x2 = 0.2009	705.04
101 kPa, x2 = 0.2591	707.2
101 kPa, x2 = 0.3306	710.05
101 kPa, x2 = 0.4003	713.04
101 kPa, x2 = 0.4596	715.79
101 kPa, x2 = 0.5321	719.42
101 kPa, x2 = 0.612	723.86
101 kPa, x2 = 0.6649	727.05
101 kPa, x2 = 0.7224	730.84
101 kPa, x2 = 0.8047	736.83
101 kPa, x2 = 0.8686	742.07
101 kPa, x2 = 0.9405	748.72
2130 kPa, x2 = 0	699.9
2130 kPa, x2 = 0.09303	702.7
2130 kPa, x2 = 0.2009	706.5
2130 kPa, x2 = 0.3051	710.6
2130 kPa, x2 = 0.417	715.2
2130 kPa, x2 = 0.512	719.8
2130 kPa, x2 = 0.5996	724.6
2130 kPa, x2 = 0.7052	731.1
2130 kPa, x2 = 0.7993	738
2130 kPa, x2 = 0.9039	746.7
4150 kPa, x2 = 0	701.8
4150 kPa, x2 = 0.09303	704.7
4150 kPa, x2 = 0.2009	708.4
4150 kPa, x2 = 0.3051	712.5
4150 kPa, x2 = 0.417	717.2
4150 kPa, x2 = 0.512	721.7
4150 kPa, x2 = 0.5996	726.6
4150 kPa, x2 = 0.7052	733.1
4150 kPa, x2 = 0.7993	740
4150 kPa, x2 = 0.9039	748.7
6180 kPa, x2 = 0	703.6
6180 kPa, x2 = 0.09303	706.4
6180 kPa, x2 = 0.2009	710.2
6180 kPa, x2 = 0.3051	714.3
6180 kPa, x2 = 0.417	719
6180 kPa, x2 = 0.512	723.6
6180 kPa, x2 = 0.5996	728.4
6180 kPa, x2 = 0.7052	734.9
6180 kPa, x2 = 0.7993	741.8
6180 kPa, x2 = 0.9039	750.6
8210 kPa, x2 = 0	705.3
8210 kPa, x2 = 0.09303	708.2
8210 kPa, x2 = 0.2009	712
8210 kPa, x2 = 0.3051	716.1
8210 kPa, x2 = 0.417	720.7
8210 kPa, x2 = 0.512	725.3
8210 kPa, x2 = 0.5996	730.2
8210 kPa, x2 = 0.7052	736.7
8210 kPa, x2 = 0.7993	743.6
8210 kPa, x2 = 0.9039	752.4
10230 kPa, x2 = 0	707
10230 kPa, x2 = 0.09303	709.9
10230 kPa, x2 = 0.2009	713.7
10230 kPa, x2 = 0.3051	717.8
10230 kPa, x2 = 0.417	722.5
10230 kPa, x2 = 0.512	727
10230 kPa, x2 = 0.5996	731.9
10230 kPa, x2 = 0.7052	738.5
10230 kPa, x2 = 0.7993	745.4
10230 kPa, x2 = 0.9039	754.2
11250 kPa, x2 = 0	707.8
11250 kPa, x2 = 0.09303	710.7
11250 kPa, x2 = 0.2009	714.5
11250 kPa, x2 = 0.3051	718.6
11250 kPa, x2 = 0.417	723.3
11250 kPa, x2 = 0.512	727.9
11250 kPa, x2 = 0.5996	732.8
11250 kPa, x2 = 0.7052	739.4
11250 kPa, x2 = 0.7993	746.3
11250 kPa, x2 = 0.9039	755.1
12260 kPa, x2 = 0	708.6
12260 kPa, x2 = 0.09303	711.6
12260 kPa, x2 = 0.2009	715.4
12260 kPa, x2 = 0.3051	719.5
12260 kPa, x2 = 0.417	724.2
12260 kPa, x2 = 0.512	728.8
12260 kPa, x2 = 0.5996	733.7
12260 kPa, x2 = 0.7052	740.3
12260 kPa, x2 = 0.7993	747.1
12260 kPa, x2 = 0.9039	756
14290 kPa, x2 = 0	710.3
14290 kPa, x2 = 0.09303	713.2
14290 kPa, x2 = 0.2009	717
14290 kPa, x2 = 0.3051	721.1
14290 kPa, x2 = 0.417	725.8
14290 kPa, x2 = 0.512	730.4
14290 kPa, x2 = 0.5996	735.3
14290 kPa, x2 = 0.7052	741.9
14290 kPa, x2 = 0.7993	748.9
14290 kPa, x2 = 0.9039	757.7
16310 kPa, x2 = 0	711.9
16310 kPa, x2 = 0.09303	714.8
16310 kPa, x2 = 0.2009	718.7
16310 kPa, x2 = 0.3051	722.7
16310 kPa, x2 = 0.417	727.5
16310 kPa, x2 = 0.512	732
16310 kPa, x2 = 0.5996	737
16310 kPa, x2 = 0.7052	743.6
16310 kPa, x2 = 0.7993	750.5
16310 kPa, x2 = 0.9039	759.4
18340 kPa, x2 = 0	713.5
18340 kPa, x2 = 0.09303	716.4
18340 kPa, x2 = 0.2009	720.2
18340 kPa, x2 = 0.3051	724.3
18340 kPa, x2 = 0.417	729.1
18340 kPa, x2 = 0.512	733.6
18340 kPa, x2 = 0.5996	738.6
18340 kPa, x2 = 0.7052	745.3
18340 kPa, x2 = 0.7993	752.1
18340 kPa, x2 = 0.9039	761.1
20370 kPa, x2 = 0	715
20370 kPa, x2 = 0.09303	717.9
20370 kPa, x2 = 0.2009	721.8
20370 kPa, x2 = 0.3051	725.9
20370 kPa, x2 = 0.417	730.6
20370 kPa, x2 = 0.512	735.2
20370 kPa, x2 = 0.5996	740.2
20370 kPa, x2 = 0.7052	746.9
20370 kPa, x2 = 0.7993	753.7
20370 kPa, x2 = 0.9039	762.7
22390 kPa, x2 = 0	716.5
22390 kPa, x2 = 0.09303	719.4
22390 kPa, x2 = 0.2009	723.3
22390 kPa, x2 = 0.3051	727.4
22390 kPa, x2 = 0.417	732.2
22390 kPa, x2 = 0.512	736.7
22390 kPa, x2 = 0.5996	741.8
22390 kPa, x2 = 0.7052	748.4
22390 kPa, x2 = 0.7993	755.3
22390 kPa, x2 = 0.9039	764.3
24420 kPa, x2 = 0	717.9
24420 kPa, x2 = 0.09303	720.8
24420 kPa, x2 = 0.2009	724.8
24420 kPa, x2 = 0.3051	728.8
24420 kPa, x2 = 0.417	733.6
24420 kPa, x2 = 0.512	738.2
24420 kPa, x2 = 0.5996	743.3
24420 kPa, x2 = 0.7052	749.9
24420 kPa, x2 = 0.7993	756.8
24420 kPa, x2 = 0.9039	765.8
26450 kPa, x2 = 0	719.4
26450 kPa, x2 = 0.09303	722.3
26450 kPa, x2 = 0.2009	726.2
26450 kPa, x2 = 0.3051	730.3
26450 kPa, x2 = 0.417	735.1
26450 kPa, x2 = 0.512	739.7
26450 kPa, x2 = 0.5996	744.8
26450 kPa, x2 = 0.7052	751.4
26450 kPa, x2 = 0.7993	758.3
26450 kPa, x2 = 0.9039	767.4
28470 kPa, x2 = 0	720.8
28470 kPa, x2 = 0.09303	723.6
28470 kPa, x2 = 0.2009	727.6
28470 kPa, x2 = 0.3051	731.7
28470 kPa, x2 = 0.417	736.5
28470 kPa, x2 = 0.512	741.1
28470 kPa, x2 = 0.5996	746.2
28470 kPa, x2 = 0.7052	752.9
28470 kPa, x2 = 0.7993	759.8
28470 kPa, x2 = 0.9039	768.9
29490 kPa, x2 = 0	721.4
29490 kPa, x2 = 0.09303	724.3
29490 kPa, x2 = 0.2009	728.3
29490 kPa, x2 = 0.3051	732.4
29490 kPa, x2 = 0.417	737.2
29490 kPa, x2 = 0.512	741.8
29490 kPa, x2 = 0.5996	746.9
29490 kPa, x2 = 0.7052	753.6
29490 kPa, x2 = 0.7993	760.5
29490 kPa, x2 = 0.9039	769.6
30500 kPa, x2 = 0	722.1
30500 kPa, x2 = 0.09303	725
30500 kPa, x2 = 0.2009	729
30500 kPa, x2 = 0.3051	733.1
30500 kPa, x2 = 0.417	737.9
30500 kPa, x2 = 0.512	742.5
30500 kPa, x2 = 0.5996	747.6
30500 kPa, x2 = 0.7052	754.3
30500 kPa, x2 = 0.7993	761.2
30500 kPa, x2 = 0.9039	770.3
32530 kPa, x2 = 0	723.4
32530 kPa, x2 = 0.09303	726.4
32530 kPa, x2 = 0.2009	730.4
32530 kPa, x2 = 0.3051	734.4
32530 kPa, x2 = 0.417	739.3
32530 kPa, x2 = 0.512	743.8
32530 kPa, x2 = 0.5996	749
32530 kPa, x2 = 0.7052	755.7
32530 kPa, x2 = 0.7993	762.6
32530 kPa, x2 = 0.9039	771.7
34550 kPa, x2 = 0	724.8
34550 kPa, x2 = 0.09303	727.7
34550 kPa, x2 = 0.2009	731.8
34550 kPa, x2 = 0.3051	735.8
34550 kPa, x2 = 0.417	740.6
34550 kPa, x2 = 0.512	745.2
34550 kPa, x2 = 0.5996	750.4
34550 kPa, x2 = 0.7052	757.1
34550 kPa, x2 = 0.7993	764
34550 kPa, x2 = 0.9039	773.2
36580 kPa, x2 = 0	726.1
36580 kPa, x2 = 0.09303	729
36580 kPa, x2 = 0.2009	733.1
36580 kPa, x2 = 0.3051	737.1
36580 kPa, x2 = 0.417	742
36580 kPa, x2 = 0.512	746.6
36580 kPa, x2 = 0.5996	751.7
36580 kPa, x2 = 0.7052	758.5
36580 kPa, x2 = 0.7993	765.4
36580 kPa, x2 = 0.9039	774.5
38600 kPa, x2 = 0	727.5
38600 kPa, x2 = 0.09303	730.4
38600 kPa, x2 = 0.2009	734.5
38600 kPa, x2 = 0.3051	738.5
38600 kPa, x2 = 0.417	743.3
38600 kPa, x2 = 0.512	748
38600 kPa, x2 = 0.5996	753.1
38600 kPa, x2 = 0.7052	759.9
38600 kPa, x2 = 0.7993	766.8
38600 kPa, x2 = 0.9039	776
39620 kPa, x2 = 0	728.1
39620 kPa, x2 = 0.09303	731
39620 kPa, x2 = 0.2009	735.1
39620 kPa, x2 = 0.3051	739.1
39620 kPa, x2 = 0.417	744
39620 kPa, x2 = 0.512	748.6
39620 kPa, x2 = 0.5996	753.8
39620 kPa, x2 = 0.7052	760.6
39620 kPa, x2 = 0.7993	767.5
39620 kPa, x2 = 0.9039	776.7
